# Source: the NIST ThermoML archive (doi:10.1016/j.jct.2017.03.019)
# Numbers after ± are expanded uncertainties.
# What was measured:
# [1] = 298.2 K; 101.33 kPa; Liquid; Vibrating tube method
# [2] = refractive index (Na D-line) (dimensionless); details: 298.2 K; 101.33 kPa; Liquid; Standard Abbe refractometry
# [3] = refractive index (Na D-line) (dimensionless); wn = mass fraction of the nth substance listed; details: 298.2 K, 100 kPa, Liquid, Standard Abbe refractometry
# [4] = wn = mass fraction of the nth substance listed; details: 298.2 K, 100 kPa, Liquid, Vibrating tube method
structure (smiles),measurement,setting,value
CCCCO [butan-1-ol],mass density,[1],805.81 ± 1.9 kg/m3
same,refractive index,[2],1.3973 ± 0.0032
CCCCO [butan-1-ol] + O,refractive index,[3]; w2 = 0.2058,1.3885 ± 0.0036
same,refractive index,[3]; w2 = 0.9265,1.3402 ± 0.0036
same,mass density,[4]; w2 = 0.2058,844.74 ± 3.5 kg/m3
same,mass density,[4]; w2 = 0.9265,986.16 ± 3.8 kg/m3
CCC(C)O (stereo not given) [butan-2-ol],mass density,[1],802.49 ± 0.95 kg/m3
same,refractive index,[2],1.3952 ± 0.0016
CCC(C)O (stereo not given) [butan-2-ol] + O,refractive index,[3]; w2 = 0.3523,1.3812 ± 0.0036
same,refractive index,[3]; w2 = 0.8131,1.3513 ± 0.0036
same,mass density,[4]; w2 = 0.3523,874.34 ± 3.6 kg/m3
same,mass density,[4]; w2 = 0.8131,968.42 ± 3.7 kg/m3
CCCC(C)O (stereo not given) [pentan-2-ol],mass density,[1],805.37 ± 1.9 kg/m3
same,refractive index,[2],1.4044 ± 0.0032
CCCC(C)O (stereo not given) [pentan-2-ol] + O,refractive index,[3]; w2 = 0.1177,1.3992 ± 0.0036
same,refractive index,[3]; w2 = 0.9477,1.3377 ± 0.0036
same,mass density,[4]; w2 = 0.1177,827.45 ± 3.5 kg/m3
same,mass density,[4]; w2 = 0.9477,989.77 ± 3.8 kg/m3
O [water],mass density,[1],997.17 ± 1.9 kg/m3
same,refractive index,[2],1.3325 ± 0.0032
